Assay results from the NIST ThermoML archive (doi:10.1016/j.jct.2019.03.007).

Test: molar heat capacity at constant pressure
Conditions: 101.33 kPa, DSC

O=[N+]([O-])[O-].O=[N+]([O-])[O-].[Ca+2] [calcium nitrate]
Conditions	molar heat capacity at constant pressure [J/K/mol]
267.18 K, Crystal 2	142.87
268.18 K, Crystal 2	143.14
269.18 K, Crystal 2	143.48
270.18 K, Crystal 2	143.75
271.18 K, Crystal 2	144.11
272.18 K, Crystal 2	144.39
273.18 K, Crystal 2	144.69
274.18 K, Crystal 2	145.05
275.18 K, Crystal 2	145.33
276.18 K, Crystal 2	145.65
277.18 K, Crystal 2	145.91
278.18 K, Crystal 2	146.15
279.18 K, Crystal 2	146.49
280.18 K, Crystal 2	146.74
281.18 K, Crystal 2	147.05
282.18 K, Crystal 2	147.32
283.18 K, Crystal 2	147.62
284.18 K, Crystal 2	148.05
285.18 K, Crystal 2	148.47
286.18 K, Crystal 2	149.01
287.18 K, Crystal 2	149.55
288.18 K, Crystal 2	150.15
289.18 K, Crystal 2	150.77
290.18 K, Crystal 1	151.37
291.18 K, Crystal 1	151.12
292.18 K, Crystal 1	150.21
293.18 K, Crystal 1	149.35
294.18 K, Crystal 1	148.69
295.18 K, Crystal 1	148.17
296.18 K, Crystal 1	147.88
297.18 K, Crystal 1	147.79
298.18 K, Crystal 1	147.74
299.18 K, Crystal 1	147.76
300.18 K, Crystal 1	147.88
301.18 K, Crystal 1	148.08
302.18 K, Crystal 1	148.34
303.18 K, Crystal 1	148.7
304.18 K, Crystal 1	149.02
305.18 K, Crystal 1	149.46
306.18 K, Crystal 1	149.88
307.18 K, Crystal 1	150.3
308.18 K, Crystal 1	150.74
309.18 K, Crystal 1	151.11
310.18 K, Crystal 1	151.52
311.18 K, Crystal 1	151.89
312.18 K, Crystal 1	152.28
313.18 K, Crystal 1	152.66
314.18 K, Crystal 1	153.07
315.18 K, Crystal 1	153.52
316.18 K, Crystal 1	153.88
317.18 K, Crystal 1	154.27
318.18 K, Crystal 1	154.64
319.18 K, Crystal 1	154.97
320.18 K, Crystal 1	155.32
321.18 K, Crystal 1	155.55
322.18 K, Crystal 1	155.81
323.18 K, Crystal 1	155.97
324.18 K, Crystal 1	156.09
325.18 K, Crystal 1	156.21
326.18 K, Crystal 1	156.25
327.18 K, Crystal 1	156.31
328.18 K, Crystal 1	156.31
328.78 K, Crystal 1	142.63
329.18 K, Crystal 1	156.34
329.78 K, Crystal 1	143.76
330.18 K, Crystal 1	156.4
330.78 K, Crystal 1	144.52
331.18 K, Crystal 1	156.44
331.78 K, Crystal 1	145.04
332.18 K, Crystal 1	156.55
332.78 K, Crystal 1	145.41
333.18 K, Crystal 1	156.64
333.78 K, Crystal 1	145.78
334.18 K, Crystal 1	156.71
334.78 K, Crystal 1	146.14
335.18 K, Crystal 1	156.85
335.78 K, Crystal 1	146.49
336.18 K, Crystal 1	156.94
336.78 K, Crystal 1	146.84
337.18 K, Crystal 1	157.08
337.78 K, Crystal 1	147.18
338.18 K, Crystal 1	157.1
338.78 K, Crystal 1	147.5
339.18 K, Crystal 1	157.13
339.78 K, Crystal 1	147.78
340.18 K, Crystal 1	157.13
340.78 K, Crystal 1	148.04
341.18 K, Crystal 1	157.22
341.78 K, Crystal 1	148.31
342.18 K, Crystal 1	157.26
342.78 K, Crystal 1	148.58
343.18 K, Crystal 1	157.38
343.78 K, Crystal 1	148.83
344.18 K, Crystal 1	157.49
344.78 K, Crystal 1	149.08
345.18 K, Crystal 1	157.55
345.78 K, Crystal 1	149.33
346.18 K, Crystal 1	157.7
346.78 K, Crystal 1	149.56
347.18 K, Crystal 1	157.84
347.78 K, Crystal 1	149.77
348.18 K, Crystal 1	158
348.78 K, Crystal 1	149.98
349.18 K, Crystal 1	158.16
349.78 K, Crystal 1	150.2
350.18 K, Crystal 1	158.3
350.78 K, Crystal 1	150.42
351.18 K, Crystal 1	158.39
351.78 K, Crystal 1	150.66
352.18 K, Crystal 1	158.48
352.78 K, Crystal 1	150.89
353.18 K, Crystal 1	158.58
353.78 K, Crystal 1	151.12
354.18 K, Crystal 1	158.8
354.78 K, Crystal 1	151.32
355.18 K, Crystal 1	158.94
355.78 K, Crystal 1	151.51
356.18 K, Crystal 1	159.08
356.78 K, Crystal 1	151.68
357.18 K, Crystal 1	159.2
357.78 K, Crystal 1	151.85
358.18 K, Crystal 1	159.38
358.78 K, Crystal 1	152.01
359.18 K, Crystal 1	159.61
359.78 K, Crystal 1	152.18
360.18 K, Crystal 1	159.81
360.78 K, Crystal 1	152.37
361.18 K, Crystal 1	160.09
